Assay results from US20090298903A1, “USE OF TETRAMIC ACID DERIVATIVES FOR INSECT CONTROL” (priority 2006, published 2009).

Key:
Format in all cases: in vivo
[1] = system: apple capsid bug (Plesiocoris rugicollis); assay: Example 1B: apple trees against apple capsid bug; conditions: 37 d after treatment, larvae on twigs, Deltamethrin (EC 025) 3.75, (I-4) (150 OD) 30 g a.s./ha/m crown level
Method: Apple trees cv. “Holsteiner Cox” which are approximately 14 years old are treated, in 3 replications, against the apple capsid bug (Plesiocoris rugicollis). Here, the active substance Example (I-4) (150 OD) is tested at the specified application rate against the commercial standard Deltamethrin liquid (EC 025) at the specified application rate. The application is carried out with a knapsack sprayer. Here, the treatment is effected with a water application rate of 500 l/ha/m crown level.
The test is evaluated 37 days after the treatment by scoring the destruction of the larvae on the twigs with the aid of the Abbott method.

Thrips tabaci = assay: Example 6: onions against Thrips tabaci; conditions: population on leaves
Method: Plots 15 m^2 in size which are planted with onions are treated, in two replications, against Thrips tabaci. The application is effected with a knapsack sprayer which is operated with pressurized air. Here, the active substances Example (I-4), in a tank mix together with 0.2% a.s. rapeseed oil methyl ester (500 EW) and the commercial standard dimethoate and (380 EC), are tested at the specified application rates in a tank mix with 0.9% a.s. E-actipron (900 EC). The water application rate is 300 l/ha.
The test was evaluated 43 and 62 days after the treatment by scoring the destruction rate of the population on the leaves.

Empoasca onukui = assay: Example 15: tea plants against Empoasca onukui; conditions: larvae on shoots
Method: Plots approx. 4 m^2 in size which are planted with tea plants cv. “Yabukita” are treated, in three replications, against Empoasca onukui. The application is carried out with a knapsack sprayer which is operated with pressurized air. Here, the active substance Example (I-4) (150 OD) is tested against the commercial standard Admire (10 WP) at the specified application rates. The water application rate is 10 000 l/ha.
The test is evaluated 15 and 29 days after the treatment by scoring the destruction rate of the larvae in percent on the shoots.

Liriomyza sp. = assay: Example 18: beans against Liriomyza sp.
Method: Plots approx. 10 m^2 in size which are planted with beans cv. “Lago Azul” are treated, in three replications, against Liriomyza sp. Here, the active substance Example (I-4) (150 OD) and the commercial standards Cyromazine (WP 75) and Abamectin (EC 018) are applied at the specified application rates, using a knapsack sprayer which is operated with pressurized gas. The water application rate is 400 and 500 l/ha., respectively. Three applications are carried out at intervals of in each case 7 days.
The destruction rate in percent is determined on in each case 10 leaves. 2, 7, 12, 18, 20 and 25 days after the first treatment, the following results are obtained: […]

Dasineura pyri = assay: Example 19b): pear trees against Dasineura pyri; conditions: 9 d after treatment 2, larvae in rolled leaves
Method: Fully-grown pear trees cv. “Conference” of crown height approx. 3.5 m are treated, in four replications, against Dasineura pyri. Here, the active substance Example (I-4) is tested as (150 OD) and (240 SC) together with 0.1% a.s. rapeseed oil methyl ester (Mero 733 1R) in a tank mix at the specified application rate against the commercial standard Endosulfan (350 EC) at the specified application rate. The application is carried out with a spray diffuser. Here, the treatment is effected with a water application rate of 1000 l/ha/m crown level. Two applications are carried out at an interval of 7 days.
The test is evaluated 9 days after treatment 2 by scoring the destruction rate of the larvae in the rolled leaves, using the Abbott method.

Ceutorhynchus napi = assay: Example 26-A: oilseed rape against Ceutorhynchus napi; conditions: 55 d after treatment, larvae, Deltamethrin (25 EC) 5, (I-4) (+ 0.2% rapeseed oil methyl ester) 72, Thiacloprid (OD 240) 72, Lambda-cyhalothrin 5 g a.s./ha
Method: Plots approx. 25 m^2 in size which are planted with oilseed rape cv. “Artus” are treated, in four replications, against Ceutorhynchus napi. The application is carried out with a motor-operated knapsack sprayer. Here, the active substance Example (I-4), in a tank mix with 0.2% a.s. rapeseed oil methyl ester (500 EW) and the commercial standards Deltamethrin (25 EC), lambda-cyhalothrin (S100) and Thiacloprid (OD 240), is tested at the specified application rates. The water application rate is 250 l/ha.
The test is evaluated 55 days after the treatment by scoring the destruction rate of the larvae on the plants.

[2] = system: oriental fruit moth (Laspeyresia molesta); assay: Example 28: peach trees against oriental fruit moth; conditions: 41 d after treatment, Pyrifroxyfen (35 WP) 123, Acetamiprid (30 SG) 168, (I-4) (150 OD) 153 g a.s./ha
Method: Approx. 10-year-old peach trees are treated, in four replications, against the oriental fruit moth (Laspeyresia molesta). The application is carried out with a knapsack sprayer which is operated with pressurized air. Here, the active substance (I-4) (150 OD) is tested against the commercial standards Pyriproxyfen (35 WP) and Acetamiprid (30 SG) at the specified application rates. The water application rate is 935 l/ha.
The test is evaluated 41 days after the treatment by scoring the destruction rate of the animals on the trees.

Carpocapsa pomonella = assay: Example 29: apple trees against Carpocapsa pomonella, fruit damage; conditions: application rate printed as g a.s./ha: Chlorpyrifos-methyl (25 WP) 0.1, (I-4) (240 SC + 0.1% Steffes Mero) 0.012
Method: Approx. 15-year-old apple trees cv. “Golden Delicious” are treated, in four replications, against Carpocapsa pomonella. The application is carried out with an atomizer. Here, the active substance Example (I-4) (240 SC) in a tank mix together with 0.1% a.s. of the adjuvant Steffes Mero (rapeseed oil methyl ester) (733 1R) and the commercial standard Chlorpyrifos-methyl (25 WP) are tested at the specified application rates. The water application rate is 1052 l/ha. Two applications are carried out at an interval of 13 days.
The test is evaluated 32 days after treatment 2 by scoring the fruit damage with the aid of the Abbott formula.

For CCOC(=O)OC1=C(c2cc(C)ccc2C)C(=O)N[C@]12CC[C@@H](OC)CC2 [Example (I-4)], which “Efficacy (%) Abbott 37 d” value [1] is on record?
The value was 96%.

And the “Efficacy (% Abbott) 43 d” value (Thrips tabaci; 43 d after treatment, Dimethoate (380 EC + 0.9% E-actipron) 380, (I-4) (+ 0.2% rapeseed oil methyl ester) 96 g a.s./ha)?
The value was 83.0 % Abbott.

What about the “Efficacy (% Abbott) 62 d” value (Thrips tabaci; 62 d after treatment, Dimethoate 380, (I-4) 96 g a.s./ha) of the same compound?
Its value is 84.5 % Abbott.

And the “Efficacy (% Abbott) 15 d” value (Empoasca onukui; 15 d after treatment, Admire (10 WP) 0.005 % a.s., (I-4) (150 OD) 0.01 % a.s.)?
The value was 73 % Abbott.

What about the “Efficacy (% Abbott) 29 d” value (Empoasca onukui; 29 d after treatment, Admire 0.005 % a.s., (I-4) 0.01 % a.s.) of the same compound?
Its value is 78.8 % Abbott.

What about the “Efficacy (% Abbott) 2 d” value (Liriomyza sp.; 2 d after first treatment, 10 leaves, Cyromazine (WP 75) 130, (I-4) (150 OD) 100, Abamectin (EC 018) 14.4 g a.s./ha, three applications, 7-day intervals) of the same compound?
Its value is 40 % Abbott.

And the “Efficacy (% Abbott) 7 d” value (Liriomyza sp.; 7 d after first treatment, Cyromazine 130, (I-4) 100, Abamectin 14.4 g a.s./ha)?
Its value is 69 % Abbott.

What about the “Efficacy (% Abbott) 12 d” value (Liriomyza sp.; 12 d after first treatment, Cyromazine 130, (I-4) 100, Abamectin 14.4 g a.s./ha) of the same compound?
The value was 30 % Abbott.

What about the “Efficacy (% Abbott) 18 d” value (Liriomyza sp.; 18 d after first treatment, Cyromazine 130, (I-4) 100, Abamectin 14.4 g a.s./ha) of the same compound?
The value was 43 % Abbott.

And the “Efficacy (% Abbott) 20 d” value (Liriomyza sp.; 20 d after first treatment, Cyromazine 130, (I-4) 100, Abamectin 14.4 g a.s./ha)?
Its value is 57 % Abbott.

What about the “Efficacy (% Abbott) 25 d” value (Liriomyza sp.; 25 d after first treatment, Cyromazine 130, (I-4) 100, Abamectin 14.4 g a.s./ha) of the same compound?
Its value is 46 % Abbott.

And the “Efficacy (% Abbott) 9 d” value (Dasineura pyri; (I-4) as 150 OD, 150 g a.s./ha/m crown level)?
The value was 100 % Abbott.

What about the “Efficacy (% Abbott) 9 d” value (Dasineura pyri; Endosulfan (350 EC) 472.5, (I-4) as 240 SC + Mero (0.1% rapeseed oil methyl ester) 120 g a.s./ha/m crown level) of the same compound?
The value was 94.6 % Abbott.

And the “Efficacy (% Abbott) 55 d” value (Ceutorhynchus napi)?
The value was 74.3 % Abbott.

What about the “Efficacy (% Abbott) 41 d” value [2] of the same compound?
Its value is 48.1 % Abbott.

What about the “Efficacy (% Abbott) 32 d after treatment 2” value (Carpocapsa pomonella) of the same compound?
Its value is 73.7 % Abbott.
